Test results reported in PubChem BioAssay AID1259407 (Chemical Carcinogenesis Research Information System (CCRIS), 2018).
The source made the active and inactive calls. The rule behind the calls is not given here.

Test system: CCRIS mutagenicity, Ames/micronucleus/aberration tests
Assay: CCRIS mutagenicity studies
[1] = Test System: AMES SALMONELLA TYPHIMURIUM, Strain/Indicator: TA97, Metabolic Activation: NONE, Method: PREINCUBATION
[2] = Test System: AMES SALMONELLA TYPHIMURIUM, Strain/Indicator: TA98, Metabolic Activation: NONE, Method: PREINCUBATION
[3] = Test System: AMES SALMONELLA TYPHIMURIUM, Strain/Indicator: TA100, Metabolic Activation: NONE, Method: PREINCUBATION
[4] = Test System: AMES SALMONELLA TYPHIMURIUM, Strain/Indicator: TA104, Metabolic Activation: NONE, Method: PREINCUBATION
[5] = Test System: AMES SALMONELLA TYPHIMURIUM, Strain/Indicator: TA1535, Metabolic Activation: NONE, Method: PREINCUBATION

O=Cc1c(Cl)cccc1Cl
mutagenic call (Test System: AMES SALMONELLA TYPHIMURIUM, Strain/Indicator: TA97, Metabolic Activation: HAMSTER, LIVER, S-9, AROCLOR 1254 (10%), Method: PREINCUBATION): inactive; negative | mutagenic call (Test System: AMES SALMONELLA TYPHIMURIUM, Strain/Indicator: TA97, Metabolic Activation: HAMSTER, LIVER, S-9, AROCLOR 1254 (30%), Method: PREINCUBATION): inactive; negative | mutagenic call [1]: inactive; negative | mutagenic call (Test System: AMES SALMONELLA TYPHIMURIUM, Strain/Indicator: TA97, Metabolic Activation: RAT, LIVER, S-9, AROCLOR 1254 (10%), Method: PREINCUBATION): inactive; negative | mutagenic call (Test System: AMES SALMONELLA TYPHIMURIUM, Strain/Indicator: TA97, Metabolic Activation: RAT, LIVER, S-9, AROCLOR 1254 (30%), Method: PREINCUBATION): inactive; negative | mutagenic call (Test System: AMES SALMONELLA TYPHIMURIUM, Strain/Indicator: TA98, Metabolic Activation: HAMSTER, LIVER, S-9, AROCLOR 1254 (10%), Method: PREINCUBATION): inactive; negative | mutagenic call (Test System: AMES SALMONELLA TYPHIMURIUM, Strain/Indicator: TA98, Metabolic Activation: HAMSTER, LIVER, S-9, AROCLOR 1254 (30%), Method: PREINCUBATION): inactive; negative | mutagenic call [2]: inactive; negative | mutagenic call (Test System: AMES SALMONELLA TYPHIMURIUM, Strain/Indicator: TA98, Metabolic Activation: RAT LIVER S-9 PCB, Method: PREINCUBATION): inactive; negative | mutagenic call (Test System: AMES SALMONELLA TYPHIMURIUM, Strain/Indicator: TA98, Metabolic Activation: RAT, LIVER, S-9, AROCLOR 1254 (10%), Method: PREINCUBATION): inactive; negative | mutagenic call (Test System: AMES SALMONELLA TYPHIMURIUM, Strain/Indicator: TA98, Metabolic Activation: RAT, LIVER, S-9, AROCLOR 1254 (30%), Method: PREINCUBATION): inactive; negative | mutagenic call (Test System: AMES SALMONELLA TYPHIMURIUM, Strain/Indicator: TA100, Metabolic Activation: HAMSTER, LIVER, S-9, AROCLOR 1254 (10%), Method: PREINCUBATION): inactive; negative | mutagenic call (Test System: AMES SALMONELLA TYPHIMURIUM, Strain/Indicator: TA100, Metabolic Activation: HAMSTER, LIVER, S-9, AROCLOR 1254 (30%), Method: PREINCUBATION): inactive; negative | mutagenic call [3]: inactive; negative | mutagenic call (Test System: AMES SALMONELLA TYPHIMURIUM, Strain/Indicator: TA100, Metabolic Activation: RAT LIVER S-9, PCB, Method: PREINCUBATION): inactive; negative | mutagenic call (Test System: AMES SALMONELLA TYPHIMURIUM, Strain/Indicator: TA100, Metabolic Activation: RAT, LIVER, S-9, AROCLOR 1254 (10%), Method: PREINCUBATION): inactive; negative | mutagenic call (Test System: AMES SALMONELLA TYPHIMURIUM, Strain/Indicator: TA100, Metabolic Activation: RAT, LIVER, S-9, AROCLOR 1254 (30%), Method: PREINCUBATION): inactive; negative | mutagenic call (Test System: AMES SALMONELLA TYPHIMURIUM, Strain/Indicator: TA104, Metabolic Activation: HAMSTER, LIVER, S-9, AROCLOR 1254 (10%), Method: PREINCUBATION): inactive; negative | mutagenic call (Test System: AMES SALMONELLA TYPHIMURIUM, Strain/Indicator: TA104, Metabolic Activation: HAMSTER, LIVER, S-9, AROCLOR 1254 (30%), Method: PREINCUBATION): inactive; negative | mutagenic call [4]: inactive; negative | mutagenic call (Test System: AMES SALMONELLA TYPHIMURIUM, Strain/Indicator: TA104, Metabolic Activation: RAT LIVER S-9, PCB, Method: PREINCUBATION): inactive; negative | mutagenic call (Test System: AMES SALMONELLA TYPHIMURIUM, Strain/Indicator: TA104, Metabolic Activation: RAT, LIVER, S-9, AROCLOR 1254 (10%), Method: PREINCUBATION): inactive; negative | mutagenic call (Test System: AMES SALMONELLA TYPHIMURIUM, Strain/Indicator: TA104, Metabolic Activation: RAT, LIVER, S-9, AROCLOR 1254 (30%), Method: PREINCUBATION): inactive; negative | mutagenic call (Test System: AMES SALMONELLA TYPHIMURIUM, Strain/Indicator: TA1535, Metabolic Activation: HAMSTER, LIVER, S-9, AROCLOR 1254 (10%), Method: PREINCUBATION): inactive; negative | mutagenic call (Test System: AMES SALMONELLA TYPHIMURIUM, Strain/Indicator: TA1535, Metabolic Activation: HAMSTER, LIVER, S-9, AROCLOR 1254 (30%), Method: PREINCUBATION): inactive; negative | mutagenic call [5]: inactive; negative | mutagenic call (Test System: AMES SALMONELLA TYPHIMURIUM, Strain/Indicator: TA1535, Metabolic Activation: RAT, LIVER, S-9, AROCLOR 1254 (10%), Method: PREINCUBATION): inactive; negative | mutagenic call (Test System: AMES SALMONELLA TYPHIMURIUM, Strain/Indicator: TA1535, Metabolic Activation: RAT, LIVER, S-9, AROCLOR 1254 (30%), Method: PREINCUBATION): inactive; negative | mutagenic call (Test System: E.COLI, Strain/Indicator: WP2 UVRA, Metabolic Activation: NONE, Method: PREINCUBATION): inactive; negative | mutagenic call (Test System: E.COLI, Strain/Indicator: WP2 UVRA, Metabolic Activation: RAT LIVER S-9, PCB, Method: PREINCUBATION): inactive; negative

[Cl-].[Cl-].[NH2-].[NH2-].[NH2-].[NH2-].[Pt+2]
mutagenic call [2]: inactive; negative | mutagenic call (Test System: AMES SALMONELLA TYPHIMURIUM, Strain/Indicator: TA98, Metabolic Activation: RAT, LIVER, S-9, AROCLOR 1254, Method: PREINCUBATION): inactive; negative | mutagenic call [3]: inactive; negative | mutagenic call (Test System: AMES SALMONELLA TYPHIMURIUM, Strain/Indicator: TA100, Metabolic Activation: RAT, LIVER, S-9, AROCLOR 1254, Method: PREINCUBATION): inactive; negative

O=C(CCCCl)N=c1sn(C(=O)CCCCl)c2ccc([N+](=O)[O-])cc12
mutagenic call (Test System: AMES SALMONELLA TYPHIMURIUM, Strain/Indicator: TA100, Metabolic Activation: S-9, Method: STANDARD PLATE): active; positive

CC(C)(C)c1ccc(O)c(O)c1
mutagenic call (Test System: AMES SALMONELLA TYPHIMURIUM, Strain/Indicator: TA97, Metabolic Activation: HAMSTER LIVER S-9, AROCLOR 1254 (10% OR 30%), Method: PREINCUBATION): inactive; negative | mutagenic call [1]: inactive; negative | mutagenic call (Test System: AMES SALMONELLA TYPHIMURIUM, Strain/Indicator: TA97, Metabolic Activation: RAT LIVER S-9, AROCLOR 1254 (10% OR 30%), Method: PREINCUBATION): inactive; negative | mutagenic call (Test System: AMES SALMONELLA TYPHIMURIUM, Strain/Indicator: TA98, Metabolic Activation: HAMSTER LIVER S-9, AROCLOR 1254 (10% OR 30%), Method: PREINCUBATION): inactive; negative | mutagenic call [2]: inactive; negative | mutagenic call (Test System: AMES SALMONELLA TYPHIMURIUM, Strain/Indicator: TA98, Metabolic Activation: RAT LIVER S-9, AROCLOR 1254 (10% OR 30%), Method: PREINCUBATION): inactive; negative | mutagenic call (Test System: AMES SALMONELLA TYPHIMURIUM, Strain/Indicator: TA100, Metabolic Activation: HAMSTER LIVER S-9, AROCLOR 1254 (10% OR 30%), Method: PREINCUBATION): inactive; negative | mutagenic call [3]: inactive; negative | mutagenic call (Test System: AMES SALMONELLA TYPHIMURIUM, Strain/Indicator: TA100, Metabolic Activation: RAT LIVER S-9, AROCLOR 1254 (10% OR 30%), Method: PREINCUBATION): inactive; negative | mutagenic call (Test System: AMES SALMONELLA TYPHIMURIUM, Strain/Indicator: TA102, Metabolic Activation: HAMSTER LIVER S-9, AROCLOR 1254 (10% OR 30%), Method: PREINCUBATION): inactive; negative | mutagenic call (Test System: AMES SALMONELLA TYPHIMURIUM, Strain/Indicator: TA102, Metabolic Activation: NONE, Method: PREINCUBATION): inactive; negative | mutagenic call (Test System: AMES SALMONELLA TYPHIMURIUM, Strain/Indicator: TA102, Metabolic Activation: RAT LIVER S-9, AROCLOR 1254 (10% OR 30%), Method: PREINCUBATION): inactive; negative | mutagenic call (Test System: AMES SALMONELLA TYPHIMURIUM, Strain/Indicator: TA104, Metabolic Activation: HAMSTER LIVER S-9, AROCLOR 1254 (10% OR 30%), Method: PREINCUBATION): inactive; negative | mutagenic call [4]: inactive; negative | mutagenic call (Test System: AMES SALMONELLA TYPHIMURIUM, Strain/Indicator: TA104, Metabolic Activation: RAT LIVER S-9, AROCLOR 1254 (10% OR 30%), Method: PREINCUBATION): inactive; negative | mutagenic call (Test System: AMES SALMONELLA TYPHIMURIUM, Strain/Indicator: TA1535, Metabolic Activation: HAMSTER LIVER S-9, AROCLOR 1254 (10% OR 30%), Method: PREINCUBATION): inactive; negative | mutagenic call [5]: inactive; negative | mutagenic call (Test System: AMES SALMONELLA TYPHIMURIUM, Strain/Indicator: TA1535, Metabolic Activation: RAT LIVER S-9, AROCLOR 1254 (10% OR 30%), Method: PREINCUBATION): inactive; negative
